Test results taken from US20140314746A1, “METHODS FOR TREATING OR PREVENTING FIBROSIS IN SUBJECTS AFFLICTED WITH SCLERODERMA” (Philadelphia Health and Education Corporation, d/b/a Drexel …, priority 2013, published 2014).

Tests used:
SSc fibroblasts = test: Hydroxyproline secretion by SSc fibroblasts treated with glyburide or parthenolide; settings: 100 μM glyburide or 10 μM parthenolide; media of 24 h and further 24 h
Protocol: SSc fibroblasts were cultured in 5 ml of media with 100 μM glyburide (G) or 10 μM parthenolide (P). After 24 h the media was collected and the fibroblasts given an additional 5 ml of media with 100 μM glyburide or 10 μM parthenolide and cultured for a further 24 h. Media from both time points was assayed for hydroxyproline. Three independent experiments were performed in and assayed in triplicate. Data is presented as means±SEM. G=glyburide, P=parthenolide.
SSc fibroblasts were treated for 24 h with 100 μM Glyburide or 10 μM Parthenolide. The media was replaced with fresh after 24 h with 100 μM Glyburide or 10 μM Parthenolide and cultured for an additional 24 h. The culture media was assayed for hydroxyproline.

[1] = tested on: other members of the interleukin-1 family, including interleukin-1 alpha; settings: cited from earlier work
mouse dermal fibroblasts = test: Hydroxyproline secretion by mouse dermal fibroblasts stimulated with bleomycin; assay type: cell-based; settings: for hydroxyproline secreted: 48 h
Protocol: (§1) Normal human dermal fibroblasts (n=4) were purchased from the Coriell Institute (Camden, N.J.) and normal lung fibroblasts (n=3) were obtained from the University of Pittsburgh. Normal and SSc dermal fibroblasts (750,000 cells/dish) were cultured in DMEM (Mediatech Inc., Manassas Va.) supplemented with 10% FBS (Mediatech) and 1% penicillin/streptomycin (Mediatech). Protein lysates were collected for western blotting and media was collected for ELISA and hydroxyproline assays. SSc fibroblasts were treated with 20 μM caspase-1 inhibitor, Benzyloxycarbonyl-Tyr-Val-Ala-Asp(OMe)-fluoromethylketone (Z-YVAD(OMe)-FMK; Enzo Life Sciences, Plymouth Meeting Pa.) for 48 h. Fibroblasts from NLRP3−/−, and ASC−/− and C57BL/6 mice (Jackson Laboratories, Bar Harbor Me.) were established from skin and were treated with 1 μM bleomycin and 20 μM Z-YVAD(OMe)-FMK for 48 h.
(§2) Total collagen secreted into media was measured by hydroxyproline (Woessner, 1961, Arch Biochem Biophys 93:440-7). Absorbances were read in a spectrophotometer at 550 nm and the concentration of hydroxyproline was determined against a standard curve of hydroxyproline.

[2] = tested on: C57Bl/6, NLRP3−/− and ASC−/− mice; test: Murine bleomycin-induced model of fibrosis (skin thickness, lung pathology); assay type: in vivo, mouse
Protocol: All animals were housed in the University Laboratory Animal facility and fed ad libitum. Pathogen free C57Bl/6 mice (n=7) were purchased from Jackson Laboratories. […] Seven untreated C57BL/6 mice were assessed for skin thickness and lung pathology. Dermal fibrosis was induced by daily subcutaneous administration of 100 μl of a 1 mg/ml of bleomycin (BioMol, Plymouth Meeting Pa.) in the flank for 28 days. At the same time 100 μl sterile PBS was administered by subcutaneous injection in the contralateral flank of the same mouse according to the method of Yamamoto et al. (Yamamoto et al., 1999, J Invest Dermatol 112:456-62). Mice were euthanized and tissue from both injection sites was harvested, along with lung tissue. Tissues were fixed, embedded in paraffin, and sectioned onto positively charged slides, then stained with Masson's Trichrome and photographed. Collagen was measured in the skin from just below the epidermis to the fat layer. Two images were taken at 100× magnification. Six measurements were taken for each image using the Advanced SpotCam software and expressed as skin thickness in microns±SEM and fold change in skin thickness.

[3] = tested on: mouse models of acute gout; settings: in vivo; cited from earlier work
interleukin-1β = settings: cited from earlier work
[4] = tested on: SSc dermal myofibroblasts; test: Immunofluorescence of α-SMA and f-actin in SSc dermal myofibroblasts; assay type: cell-based, human; settings: 48 h
Protocol: SSc dermal fibroblasts were cultured in chamber slides to 80% confluency and treated with Z-YVAD(OMe)-FMK for 48 h, air dried then fixed with 4% paraformaldehyde for 20 min. Slides were washed with 1×PBS and blocked with 5% goat serum. Primary antibody to α-SMA (1:100, Clone #1A4, Abcam, Cambridge Mass.) and applied to the cells for 40 min, then washed in PBS. Cy2-conjugated goat-anti-mouse (1:200, Jackson ImmunoResearch, West Grove Pa.) was applied to the cells for 40 min, and then washed. Rhodamine phalloidin (1:100, Cytoskeleton, Denver Colo.) was applied to the cells for 15 min, then the cells were washed with PBS, counterstained with DaPI (Invitrogen), visualized with a Nikon Eclipse 80i epi-fluorescent microscope, and photographed at 400× magnification. All images (red for f-actin, green for α-SMA, and triple for simultaneous detection of f-actin, α-SMA and nuclei) were captured at 6 sec, Gain=2, Gamma=0.5.

SSc dermal fibroblasts [5] = test: Hydroxyproline (total collagen) secretion by SSc dermal fibroblasts; assay type: cell-based, human; settings: 20 μM inhibitor, 48 h, untreated 18.73±2.33
Protocol: as §1, §2
(§3) 80% confluent fibroblasts were cultured in serum free Opti-MEM and transfected with siRNA targeting caspase-1 (Santa Cruz) for 48 h, with an additional transfection of the siRNA duplex after 24 h. […]

SSc dermal fibroblasts [6] = test: Western blot of secreted COL1A1 and COL3A1, SSc dermal fibroblasts; assay type: cell-based, human; settings: 48 h
Protocol: as §1
(§4) 30 μl of media was size fractionated on a 5% SDS polyacrylamide gel (Invitrogen, Carlsbad Calif.) and the proteins transferred to a PVDF membrane (Invitrogen). Non-specific binding sites were blocked and then probed with rabbit-anti-human COL1A1, COL3A1, or α-SMA (Santa Cruz Biotechnologies, Santa Cruz Calif.) overnight at 4° C. The membrane was washed and incubated with goat anti-rabbit-HRP (1:5000) (Jackson Immunoresearch, West Grove Pa.). […] The intensity of the bands was measured by ImageJ (http://rsbweb dot nih dot gov/ij/).

SSc lung fibroblasts [7] = test: IL-18 secretion by SSc lung fibroblasts (ELISA of media); assay type: cell-based, human; settings: SSc lung fibroblasts (n=3), 20 μM inhibitor, 48 h; untreated 743.9±6.4
Protocol: as §1
(§5) Media from SSc and normal fibroblasts were assayed by ELISA for IL-1β (Thermo Scientific, Rockford Ill.) and IL-18 (MBL, Woburn Mass.) according to the manufacturer's recommendations. […] The sensitivity of the IL-1β ELISA was 2.6 pg/ml and the sensitivity of the IL-18 was 12 pg/ml.

SSc dermal fibroblasts [8] = test: IL-18 secretion by SSc dermal fibroblasts (ELISA of media); assay type: cell-based, human; settings: SSc dermal fibroblasts (n=4), 20 μM inhibitor, 48 h; untreated 23.9±1.0
Protocol: as §1, §5, §3

SSc dermal fibroblasts [9] = test: IL-1β secretion by SSc dermal fibroblasts (ELISA of media); assay type: cell-based, human; settings: SSc dermal fibroblasts (n=4), 20 μM inhibitor, 48 h, untreated 41.1±5.6
Protocol: as §1, §5, §3

SSc lung fibroblasts [10] = test: IL-1β secretion by SSc lung fibroblasts (ELISA of media); assay type: cell-based, human; settings: SSc lung fibroblasts (n=3), 20 μM inhibitor, 48 h; untreated 19.7±0.4
Protocol: as §1, §5

SSc lung fibroblasts [11] = test: Hydroxyproline (total collagen) secretion by SSc lung fibroblasts; assay type: cell-based, human; settings: 20 μM inhibitor, 48 h, untreated 216.1±18.5
Protocol: as §1, §2

fibroblasts = assay type: cell-based
Protocol: as §1

SSc dermal fibroblasts [12] = test: Western blot of α-SMA in SSc dermal fibroblasts; assay type: cell-based, human; settings: 48 h
Protocol: 30 μl of media was size fractionated on a 5% SDS polyacrylamide gel (Invitrogen, Carlsbad Calif.) and the proteins transferred to a PVDF membrane (Invitrogen). Non-specific binding sites were blocked and then probed with rabbit-anti-human COL1A1, COL3A1, or α-SMA (Santa Cruz Biotechnologies, Santa Cruz Calif.) overnight at 4° C. The membrane was washed and incubated with goat anti-rabbit-HRP (1:5000) (Jackson Immunoresearch, West Grove Pa.). The HRP signal was developed with SuperSignal Chemiluminescent Substrate (Pierce). The intensity of the bands was measured by ImageJ (http://rsbweb dot nih dot gov/ij/).
80% confluent fibroblasts were cultured in serum free Opti-MEM and transfected with siRNA targeting caspase-1 (Santa Cruz) for 48 h, with an additional transfection of the siRNA duplex after 24 h. Cells were harvested for protein for Western blotting and the media was saved for hydroxyproline and IL-1β and IL-18 measurements and cells were lysed for α-SMA detection.

SSc lung fibroblasts [13] = test: Western blot of secreted COL1A1 and COL3A1, SSc lung fibroblasts; assay type: cell-based, human; settings: 48 h
Protocol: as §1, §4

COc1ccc(Cl)cc1C(=O)NCCc1ccc(S(=O)(=O)NC(=O)NC2CCCCC2)cc1 [Glyburide, 5-chloro-N-(4-[N-(cyclohexylcarbamoyl)sulfamoyl]phenethyl)-2-methoxybenzamide]
hydroxyproline secretion by SSc fibroblasts (SSc fibroblasts): significantly reduce

Canakinumab: a human monoclonal antibody targeted at interleukin-1 beta
cross-reactivity with other members of the interleukin-1 family [1]: no cross-reactivity

bleomycin
hydroxyproline secretion (mouse dermal fibroblasts; ASC−/− and NLRP3−/− fibroblasts, 1 μM bleomycin, p>0.43): not induced | hydroxyproline secreted (mouse dermal fibroblasts; C57BL/6 fibroblasts stimulated with 1 μM bleomycin, unstimulated 10.6±3.8): 42.8 ± 2.9 µg/mL | fold induction of skin thickness ([2]; ASC−/− mice, bleomycin vs PBS injected skin): 1.06 fold | average skin thickness ([2]; C57Bl/6 mice, bleomycin 100 μg daily s.c. 28 days, PBS injected skin 320.7±40.6): 504.4±66.7 microns | fold increase in skin thickness ([2]; C57Bl/6 mice, bleomycin vs PBS injected skin): 1.54±0.11 fold | fold induction of skin thickness ([2]; NLRP3−/− mice, bleomycin vs PBS injected skin): 1.10 fold | lung pathology ([2]; wild-type C57Bl/6 mice, bleomycin s.c. 28 days): developed extensive pulmonary fibrosis

XOMA-052: a potent anti-IL-1β humanized neutralizing antibody
activity in mouse models of acute gout [3]: active

CSc1ccc(-c2nn(Cc3ccccc3)c(=O)cc2-c2ccc(Cl)cc2)cc1 [K-832, 2-benzyl-5-(4-chlorophenyl)-6-[4-(methylthio)phenyl]-2H-pyridazin-3-one]
inhibitory activity against production of interleukin-1β (interleukin-1β): high inhibitory activity

COC(=O)C[C@H](NC(=O)[C@H](C)NC(=O)[C@@H](NC(=O)[C@H](Cc1ccc(O)cc1)NC(=O)OCc1ccccc1)C(C)C)C(=O)CF [Z-YVAD(OMe)-FMK, Benzyloxycarbonyl-Tyr-Val-Ala-Asp(OMe)-fluoromethylketone]
F-actin MFI ([4]; SSc dermal cells, untreated 37.8±3.09): 39.6±2.9 MFI | F-actin staining ([4]; SSc dermal myofibroblasts): unaffected | Mean fluorescent intensity (MFI) of α-SMA after correction for f-actin MFI ([4]; SSc dermal myofibroblasts, untreated 1.03±0.05): 0.68±0.04 | Mean fluorescent intensity of α-SMA ([4]; SSc dermal myofibroblasts, untreated 38.9±2.4): 27.6±2.5 | hydroxyproline secreted (SSc dermal fibroblasts [5]): 5.19 ± 0.94 µg/mL | Secreted COL1A1 protein (densitometry) (SSc dermal fibroblasts [6]; untreated 11.4±1.3 AU): 8.9±1.0 AU | COL3A1 protein (densitometry) (SSc dermal fibroblasts [6]; untreated 14.7±3.1 AU): 8.6±2.5 AU | IL-18 secreted (SSc lung fibroblasts [7]): 311.6 ± 18.5 pg/mL | IL-18 secreted (SSc dermal fibroblasts [8]): 15.2 ± 1.5 pg/mL | hydroxyproline secreted (mouse dermal fibroblasts; C57BL/6 fibroblasts, 1 μM bleomycin plus 20 μM inhibitor): 5.9 ± 0.7 µg/mL | IL-1β secreted (SSc dermal fibroblasts [9]): 12.0 ± 1.6 pg/mL | IL-1β secreted (SSc dermal fibroblasts [9]; listed as YVAD): 12.0 pg/mL | IL-1β secreted (SSc lung fibroblasts [10]): 7.2 ± 0.2 pg/mL | hydroxyproline secreted (SSc lung fibroblasts [11]): 132.0 ± 22.8 µg/mL | apoptosis (fibroblasts): did not interfere with cell proliferation or induce apoptosis | Decrease of α-smooth muscle actin by Western (SSc dermal fibroblasts [12]; after normalization for β-actin): approximately 50% | α-SMA protein by Western, normalized for β-actin loading (SSc dermal fibroblasts [12]; untreated 1.07±0.15): 0.54±0.14 | COL1A1 secretion (SSc lung fibroblasts [13]; p=0.051): trend for the reduction | COL3A1 protein (densitometry) (SSc lung fibroblasts [13]; untreated 12.3±3.8 AU): 5.5±1.2 AU
